US5081253A, “Imidazo(4,5-C)pyridines as antiosteoporotic agents” (American Home Products Corporation, priority 1990, dated 1992)

Key:
[1] = system: Rat Limb Bones (PTH induced bone resorption); assay: Bone Resorption Assay: 45Ca Release from Rat Limb Bones (PTH Induced); assay type: cell-based, rat (Sprague-Dawley CD)
Description: The purpose of this assay is to identify compounds that inhibit basal or stimulated bone resorption in culture.
The ability of 2-substituted-imidazo[4,5-c]pyridines to modify the process of bone resorption was evaluated essentially as described by L.G. Raisz, Bone resorption in tissue culture. Factors influencing the response to parathyroid hormone.
Timed pregnant Sprague-Dawley CD® rats (Charles River) are administered 100 μCi ^45 CaCl2 (NEN calcium -45 NEZ-013) in 100 μL of 0.9% saline, subcutaneously, on day 18 of gestation. The rats are sacrificed the following day by CO2 asphyxiation. The fetuses are removed and the right forelimbs excised and placed in a Petri dish containing ice cold explant medium consisting of modified BGJb -Fitton Jackson media (custom formulation, Gibco No. 78-0088) adjusted to pH 7.3 to which 10 mM TES is added. […] Under a dissecting microscope, the bones are gently cleaned of adherent tissue and the cartilaginous ends removed. Incubation and drug treatment. […] The preincubation medium is brought to 37° C. prior to transfer of bones. The preincubation medium consists of the modified BGJb medium (with salts and glucose as above), pH 7.3, containing 29 mM NaHCO3. […] For compounds that require nonaqueous solvents, dilutions are made from the appropriate stock solution with medium. In these instances, basal and bone resorption stimulated controls exposed to an equivalent concentration of the vehicle are included. […] The right ulna and radius from each fetus are used. Both bones are subjected to the same treatment and each treatment group consists of bones from 4 or more fetuses. Treatments are randomly assigned using a preclinical statistics program (PS-ALLOC). After a 48 hour incubation at 37° C. in 5% CO2, the bones are removed from the medium and extracted in 0.5 mL of 0.1N HCl for 1 or more days. Duplicate 150 μL aliquots of the incubation medium and the bone extract are analyzed for ^45 Ca radioactivity in 5 mL of liquid scintillation cocktail.
The percentage of bone ^45 Ca released into the medium is determined as follows: [formula] […]

[2] = system: osteopenia induced by denervation of the sciatic nerve in rats; assay: Denervation Induced Osteopenia in Rats; assay type: in vivo, rat (female Sprague Dawley CD)
Description: The purpose of this assay is to evaluate the effect, in rats, of agents on the reduction in bone mass (osteopenia) induced by immobilization resulting from surgical severance (denervation) of the sciatic nerve.
The animals are housed in plastic cages (4 or 5 rats/cage) with food (rat purina 500 chow) and water ad libitum; 14/10 day/night cycle.
After one week of in-house acclimatization, the animals are randomly divided into groups of 6 to 10 rats/group. Each rat is weighed, anesthetized with an intraperitoneal administration of 100 mg/kg ketamine (Bristol Laboratories, Syracuse, N.Y.) and 0.75 mg/kg Acepromazine (Aveco, Ft. Dodge, Iowa). The left hind limb is shaved and denervated by making a lateral incision parallel to the femur and by surgically removing half of a centimeter of the sciatic nerve adjacent to caudofemoralis and adductor brevis muscles. The incision is closed with wound clips. After surgery, the rats are housed in cages with absorbent bedding to minimize additional trauma to the immobilized limb. A 24 hour post-surgery recovery period is allowed before the initiation of the drug treatment.
The concentration of the drug stock is calculated to be delivered in a volume of 0.1 mL/100 gram body weight. The drug solution or a uniform suspension is prepared in 1% Tween 80 in normal saline. The drugs are administered via oral or parenteral routes daily (five times a week) for four weeks.
A sequential triple labeling of mineralized tissue is employed to determine the osseous changes (especially the bone formation) and the mineralization rates. Each animal is administered 90 mg/kg Xylenol orange (Fisher Scientific Company), S.C., 15 mg/kg Calcein (Sigma Chemical Company), S.C. and 15 mg/kg Demeclocycline (Sigma Chemical Company), i.p., approximately 21 days, 10 days and 2 days prior to the termination of the study, respectively.
At the end of the fourth week, each rat is weighed, anesthetized with an intraperitoneal administration of 100 mg/kg ketamine with 0.75 mg/kg Acepromazine and approximately 4 mL of blood collected via cardiac puncture. The anesthetized rats are euthanized by exposure to carbon dioxide. The femora and tibiae from both limbs are dissected free of soft tissue. (i) Femora are ashed at ~1100° C. for 16 hours using a muffle furnace. --(ii) Proximal tibia are fixed, dehydrated and embedded undecalcified in a methyl methacrylate-glycol methacrylate mixture. Longitudinal tissue sections (10 microns) are prepared on a Polycut S microtome (Reichert). Staining is performed on free-floating sections using a modified Goldner's stain, which are then mounted and coverslipped.
Cancellous bone content in the proximal tibia is quantified (as two dimensional bone mineral area [B.Ar]) with an image analysis processing device (software developed by Drexel University).
The areas of the tibia selected for cancellous bone content evaluation are the primary and secondary spongiosa. To select and standardize this area for evaluation, the epiphyseal growth plate-metaphyseal junction is oriented parallel to the abscissa of the digitizing screen. Bone elements 1.7 mm (secondary spongiosa) and 0.2 mm (primary spongiosa) from the growth plate and equidistant from the flanking cortical elements are then quantified as described above. The total area evaluated is 2.30 mm wide and 1.45 mm deep, constituting a 3.34 mm^2 area.
Body weight, femur mass (dried or ashed) and trabecular (cancellous) bone mineral area (B.Ar) are determined.
The difference (both absolute and percent change) in femur mass and bone mineral area between intact (control) and denervated limbs of a treatment group are compared with that for the vehicle group using a one-way analysis of variance with Dunnett's test, or other multiple comparison methods.
The results are reported in Table I and II under the heading In Vivo.

[3] = Table II, 25 mg/kg, route not given
[4] = Table I, concentration not given

Molecule | Inhibition of Bone Resorption, PTH Induced ([1]; Table II, 10 μg/mL) | Inhibition of Bone Resorption, In Vivo [2, 3] | Inhibition of Bone Resorption, PTH Induced ([1]; Table I, 10 μg/mL) | Inhibition of Bone Resorption, In Vivo ([2]; po, 672 h) | also measured
2-[[(3,5-Dimethoxyphenyl)methyl]thio]-1H-imidazo[4,5-c]pyridine [Example 44] | Active | Inactive |  |  | 
COc1cccc(C[S+]([O-])c2nc3cnccc3[nH]2)c1 (single isomer, unassigned) [Example 57] |  |  |  |  | Inhibition of Bone Resorption, PTH Induced [1, 4]: Active
COc1cccc(C[S+]([O-])c2nc3cnccc3[nH]2)c1 (single isomer, unassigned) [Example 58, [R-(-)]-2-[[(3-Methoxyphenyl)methyl]sulfinyl]-1H-imidazo[4,5-c]pyridine One Quarter Hydrate] |  |  |  |  | Inhibition of Bone Resorption, PTH Induced [1, 4]: Active
COc1cccc(CCSc2nc3cnccc3[nH]2)c1 [Example 16, 2-[[(3-Methoxyphenyl)ethyl]thio]-1H-imidazo[4,5-c]pyridine] | Inactive |  |  |  | Inhibition of Bone Resorption, In Vivo ([2]; Table II, 25 mg/kg, p.o.): Inactive
Clc1cc2c(cc1CSc1nc3cnccc3[nH]1)OCO2 [Example 24, 2-[[(6-Chloro-1,3-benzodioxol-5-yl)methyl]thio]-1H-imidazo[4,5-c]pyridine] | Active |  |  |  | 
COc1ccc(C[S+]([O-])c2nc3cnccc3[nH]2)cc1 (stereo not drawn) [Example 27, 2-[[(4-Methoxyphenyl)methyl]sulfinyl]-1H-imidazo[4,5-c]-pyridine-One Third Hydrate] |  |  | Active | Inactive | 
COc1cc(C[S+]([O-])c2nc3cnccc3[nH]2)cc(OC)c1OC (stereo not drawn) [Example 29, 2-[[(3,4,5-Trimethoxyphenyl)methyl]sulfinyl]-1H-imidazo[4,5-c]pyridine-One Third Hydrate] |  |  |  | Inactive | Inhibition of Bone Resorption, PTH Induced [1, 4]: Inactive
N#Cc1ccccc1CSc1nc2cnccc2[nH]1 [Example 38, 2-[(1H-Imidazo[4,5-c]pyridin-2-ylthio)methyl]benzonitrile] | Inactive | Inactive |  |  | 
N#Cc1ccccc1C[S+]([O-])c1nc2cnccc2[nH]1 (stereo not drawn) [Example 39, 2-[[(1H-Imidazo[4,5-c]pyridin-2-yl)sulfinyl]methyl]benzonitrile] |  |  | Active | Inactive | 
Fc1ccccc1CSc1nc2cnccc2[nH]1 [Example 40, 2-[[(2-Fluorophenyl)methyl]thio]-1H-imidazo[4,5-c]pyridine] | Active | Inactive |  |  | 
[O-][S+](Cc1ccccc1F)c1nc2cnccc2[nH]1 (stereo not drawn) [Example 41, 2-[[(2-Fluorophenyl)methyl]sulfinyl]-1H-imidazo[4,5-c]pyridine Quarter Hydrate] |  |  | Active | Inactive | 
COc1ccccc1CSc1nc2cnccc2[nH]1 [Example 42, 2-[[(2-Methoxyphenyl)methyl]thio]-1H-imidazo[4,5-c]pyridine] | Active |  |  |  | 
COc1ccccc1C[S+]([O-])c1nc2cnccc2[nH]1 (stereo not drawn) [Example 43, 2-[[(2-Methoxyphenyl)methyl]sulfinyl]-1H-imidazo[4,5-c]pyridine] |  |  | Active |  | 
COc1cc(C[S+]([O-])c2nc3cnccc3[nH]2)cc(OC)c1 (stereo not drawn) [Example 45, 2-[[(3,5-Dimethoxyphenyl)methyl]sulfinyl]-1H-imidazo[4,5-c]pyridine] |  |  | Active | Inactive | 
c1ccc(Oc2cccc(CSc3nc4cnccc4[nH]3)c2)cc1 [Example 46, 2-[[(3-Phenoxyphenyl)methyl]thio]-1H-imidazo[4,5-c]pyridine] | Inactive | Inactive |  |  | 
[O-][S+](Cc1cccc(Oc2ccccc2)c1)c1nc2cnccc2[nH]1 (stereo not drawn) [Example 47, 2-[[(3-Phenoxyphenyl)methyl]sulfinyl]-1H-imidazo[4,5-c]pyridine] |  |  | Active | Inactive | 
O=[N+]([O-])c1cccc(CSc2nc3cnccc3[nH]2)c1 [Example 48, 2-[[(3-Nitrophenyl)methyl]thio]-1H-imidazo[4,5-c]pyridine] |  | Inactive |  |  | 
O=[N+]([O-])c1cccc(C[S+]([O-])c2nc3cnccc3[nH]2)c1 (stereo not drawn) [Example 49, 2-[[(3-Nitrophenyl)methyl]sulfinyl]-1H-imidazo[4,5-c]pyridine 0.15 Dimethylformamide] |  |  |  | Inactive | 
COc1ccc(CSc2nc3cnccc3[nH]2)cc1C [Example 50, 2-[[(4-Methoxy-3-methylphenyl)methyl]thio]-1H-imidazo[4,5-c]pyridine] |  | Inactive |  |  | 
COc1ccc(C[S+]([O-])c2nc3cnccc3[nH]2)cc1C (stereo not drawn) [Example 51, 2-[[(4-Methoxy-3-methylphenyl)methyl]sulfinyl]-1H-imidazo[4,5-c]pyridine] |  |  |  | Inactive | 
CCOc1cccc(CSc2nc3cnccc3[nH]2)c1 [Example 52, 2-[[(3-Ethoxyphenyl)methyl]thio]-1H-imidazo[4,5-c]pyridine] | Inactive | Inactive |  |  | 
CCOc1cccc(C[S+]([O-])c2nc3cnccc3[nH]2)c1 (stereo not drawn) [Example 53, 2-[[(3-Ethoxyphenyl)methyl]sulfinyl]-1H-imidazo[4,5-c]pyridine One Third Hydrate] |  |  | Active |  | 
Br.Br.Oc1cccc(CSc2nc3cnccc3[nH]2)c1 [Example 54, 3-[[(1H-Imidazo[4,5-c]pyridin-2-yl)thio]methyl]phenol Dihydrobromide] | Inactive | Inactive |  |  | 
